Measured values reported in US5391549A, “Cinnoline-3-carboxylic acid derivatives” (Mitsubishi Kasei Corporation, priority 1992, dated 1995).
Where a name gives a salt, the structure may show the parent alone.

Target: T1, 5-HT3 receptor (Rattus norvegicus, UniProt P35563)
T1 construct: from tissue; host or cells: whole living rat (male Wistar, urethane-anesthetized); endogenous receptor
T1 sequence (P35563 24-483): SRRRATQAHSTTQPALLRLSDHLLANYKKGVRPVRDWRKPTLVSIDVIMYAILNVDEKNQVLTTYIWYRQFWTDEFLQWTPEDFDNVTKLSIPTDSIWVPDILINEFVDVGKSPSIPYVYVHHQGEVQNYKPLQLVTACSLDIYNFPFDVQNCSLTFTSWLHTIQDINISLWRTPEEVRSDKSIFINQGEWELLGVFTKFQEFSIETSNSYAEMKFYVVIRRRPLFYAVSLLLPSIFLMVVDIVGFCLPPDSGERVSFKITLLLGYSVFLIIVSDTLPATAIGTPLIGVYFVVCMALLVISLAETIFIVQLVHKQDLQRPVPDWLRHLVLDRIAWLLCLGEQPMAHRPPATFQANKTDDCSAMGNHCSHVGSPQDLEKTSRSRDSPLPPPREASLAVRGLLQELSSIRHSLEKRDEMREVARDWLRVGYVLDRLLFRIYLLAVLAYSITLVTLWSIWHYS
Assay: Inhibitory effect on the Bezold-Jarish's reflex induced in anesthetized rats with 5-HT (5HT3 receptor antagonistic effect)
Assay type: in vivo, rat (male Wister strain)
Settings: iv, i.v. test compound, 5-HT 8 μg/kg i.v., urethane-anesthetized male Wister rats, dose giving 50% inhibition, read-out: B-J Reflex Inhibition (ID50)
Experimental: 1) 5HT3 Receptor Antagonistic Effect
The antagonistic activity of the compounds of the invention to 5-HT3 receptor was evaluated as to the inhibitory effect on the Bezold-Jarish's reflex induced in anesthetized rats with 5-HT as follows.
Male Wister strain rats (300-400 g weight) were anesthetized by peritoneal injection of urethane (1.25 g/kg) and the heart rate was monitored from an electrocardiograph. Rats were intravenously injected with physiological saline (0.5 ml/kg) and 5-HT (8 μg/kg) solution (0.5 ml/kg) in physiological saline at five minutes interval and the change in the heart rate was recorded (A). Another group of rats were intravenously injected with a test compound and 5-HT solution in the same manner as the above at five minutes interval and the change in the heart rate was recorded (B). The percent inhibition of 5-HT-induced Bezold-Jarish's reflex was calculated as follows.
Inhibition (%)=(1-B/A)×100
In the Table, ID50 is a dose of a compound (I) of the invention which gives a 50% inhibition. The compound number in Table 4 correspond to those in Tables 1-3.

SMILES | ED50
CCn1nc(C(=O)NC2CC3CCC(C2)N3C)c(=O)c2ccccc21 (stereo not drawn) [Compound 76, N-(endo-8-methyl-8-azabicyclo[3.2.1]oct-3yl)-1-ethyl-1,4-dihydro-4-oxocinnoline-3-carboxamide hydrochloride] | 0.3 µg/kg
CCCn1nc(C(=O)NC2CC3CCC(C2)N3C)c(=O)c2ccccc21 (stereo not drawn) [Compound 86, N-(endo-8-methyl-8-azabicyclo[3.2.1]oct-3-yl)-1-propyl-1,4-dihydro-4-oxocinnoline-3-carboxamide hydrochloride] | 0.15 µg/kg
CCCn1nc(C(=O)NC2CC3CCC(C2)N3C)c(=O)c2cccc(F)c21 (stereo not drawn) [Compound 102, 8-Fluoro-N-(endo-8-methyl-8-azabicyclo[3.2.1]oct-3-yl)-1-propyl-1,4-dihydro-4-oxocinnoline-3-carboxamide hydrochloride] | 0.2 µg/kg
